Assays:
CK2a2 = target: T1, CK2a2 (Homo sapiens, UniProt P19784); assay: Kinase competition binding assay, CK2a2; conditions: Table 1 kinase panel
T1 construct: made in house
Experimental: (§1) Cannabis flavonoids and their analogs were subjected to kinase inhibition assay. The compounds were first screened at a single concentration of 10 μM in the primary assay. […]. To determine the kd or IC50 values, competition binding assays were established, authenticated and executed as described previously. Fabian et al., “A Small Molecule-Kinase Interaction Map For Clinical Kinase Inhibitors.”, Nat Biotechnol, 23(3):329-36, Epub (2005). See also, Karaman et al., “A Quantitative Analysis Of Kinase Inhibitor Selectivity”, Nat. Biotechnol. […] For most assays, kinases were fused to T7 phage strains (Fabian, supra) and for the other assays, kinases were produced in HEK-293 cells after which they were tagged with DNA for quantitative PCR detection. In general, full-length constructs were used for small, single domain kinases, and catalytic domain constructs for large multi-domain kinases. The binding assays utilized streptavidin-coated magnetic beads treated with biotinylated small molecule ligands for 30 minutes at room temperature which generated affinity resins for the kinase assays. The liganded beads were blocked with excess biotin and washed with blocking buffer (SeaBlock (Pierce), 1% BSA, 0.05% Tween 20, 1 mM DTT) to remove unbound ligand and to reduce non-specific phage binding. […] Test compounds were prepared as 40× stocks in 100% DMSO and diluted directly into the assay (Final DMSO concentration=2.5%). All reactions were performed in polypropylene 384-well plates in a final volume of 0.04 ml. […] The beads were then re-suspended in elution buffer (1×PBS, 0.05% Tween 20, 0.5 μM non-biotinylated affinity ligand) and incubated at room temperature with shaking for 30 minutes. The kinase concentration in the eluates was measured by quantitative PCR. An illustration of the kinase interaction process is presented below. Kd/IC50 values were determined using a standard dose response curve using the hill equation. Curves were fitted using a non-linear least square fit with the Levenberg-Marquardt algorithm.
(§2) The compound(s) were screened at 10 μM and results for primary screen binding interactions are reported as ‘% Ctrl’, where lower numbers indicate stronger hits in the matrix.

PIK4CB = target: T2, PIK4CB (Homo sapiens, UniProt Q9UBF8); assay: Kinase competition binding assay, PIK4CB; conditions: Table 1 kinase panel
T2 construct: T7 phage fusion (most assays) or DNA tag for qPCR (HEK-293-made kinases); made in house
Experimental: as §1, §2

CFPAC-1 (Pancreatic) = assay: WST-1 anticancer cell proliferation assay, CFPAC-1; format: cell-based, human; conditions: 72 hours
Experimental: Bioactivity of the above-described compounds has been verified by an anticancer cell proliferation assay using the WST-1 (4-[3-(4-iodophenyl)-2-(4-nitrophenyl)-2H-5-tetrazolio]-1, 3-benzene disulfonate) colorimetric assay by Roche Life Sciences®. Anticancer activity was tested against several standard cancer cell lines including brain, breast, Kaposi sarcoma, leukemia, lung, melanoma, tenosynovial giant cell tumor, ovarian, pancreatic, colon and prostate cancer. Cells were trypsinized and plated into 96 well plates in 50 μl of media and incubated overnight. The next day approximately 18 hours after plating, 50 μl of media containing the required flavonoid-based pharmaceutical composition was added per well. Cells were plated at a density so that 72 hours post drug addition, the cells will be in log phase (500)-2000 cells/well). The compounds and extracts were solubilized in Dimethyl sulfoxide (DMSO). The cells are allowed to proliferate for 72 hours 37° C. in humidified atmosphere of 5% CO2. The experiment is terminated using WST-1 (Roche®) 10 μl per well and absorbance is read at 450 nm %690 nm. The effect of drugs on growth is assessed as percent of cell viability. The IC50 values were determined from the extract dose versus control growth curves using Graphpad Prism® software. All experiments were carried out in duplicate and the mean results determined.

c-Kit(D820Y) = target: T3, c-Kit(D820Y) (Homo sapiens, UniProt P10721, D820Y); assay: Kinase competition binding assay, c-Kit(D820Y); conditions: Table 1 kinase panel
T3 construct: made in house
Experimental: as §1, §2

FMS/CSF1R = target: T4, FMS/CSF1R (Homo sapiens, UniProt P07333); assay: Kinase competition binding assay, FMS/CSF1R; conditions: Table 1 kinase panel
T4 construct: made in house
Experimental: as §1, §2

BIKE = target: T5, BIKE (Homo sapiens, UniProt Q9NSY1); assay: Kinase competition binding assay, BIKE; conditions: Table 1 kinase panel
T5 construct: made in house
Experimental: as §1, §2

EFGR(L858R, T7790M) = assay: Kinase competition binding assay, EFGR(L858R, T7790M); conditions: Table 1 kinase panel
Experimental: as §1, §2

KIT = target: T6, KIT (Homo sapiens, UniProt P10721); assay: Kinase competition binding assay, KIT; conditions: Table 1 kinase panel
T6 construct: made in house
Experimental: as §1, §2

DYRK1B = target: T7, DYRK1B (Homo sapiens, UniProt Q9Y463); assay: Kinase competition binding assay, DYRK1B; conditions: Table 1 kinase panel
T7 construct: made in house
Experimental: as §1, §2

c-Kit(Y823D) = target: T8, c-Kit(Y823D) (Homo sapiens, UniProt P10721, Y823D); assay: Kinase competition binding assay, c-Kit(Y823D); conditions: Table 1 kinase panel
T8 construct: made in house
Experimental: as §1, §2

Aurora A = target: T9, Aurora A (Homo sapiens, UniProt O14965); assay: Kinase competition binding assay, Aurora A; conditions: Table 1 kinase panel
T9 construct: made in house
T9 sequence (O14965 1-403): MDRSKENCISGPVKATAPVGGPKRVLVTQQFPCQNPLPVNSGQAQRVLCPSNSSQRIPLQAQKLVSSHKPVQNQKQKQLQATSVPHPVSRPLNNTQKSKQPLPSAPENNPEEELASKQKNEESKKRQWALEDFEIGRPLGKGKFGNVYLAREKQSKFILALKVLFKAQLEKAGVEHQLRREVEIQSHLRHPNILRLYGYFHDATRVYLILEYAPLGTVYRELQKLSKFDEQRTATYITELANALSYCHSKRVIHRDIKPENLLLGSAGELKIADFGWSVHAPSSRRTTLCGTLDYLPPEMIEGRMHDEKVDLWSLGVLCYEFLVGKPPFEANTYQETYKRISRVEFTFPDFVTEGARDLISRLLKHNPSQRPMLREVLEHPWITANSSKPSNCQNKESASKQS
Experimental: as §1, §2

PASK = target: T10, PASK (Homo sapiens, UniProt Q96RG2); assay: Kinase competition binding assay, PASK; conditions: Table 1 kinase panel
T10 construct: made in house
Experimental: as §1, §2

| SMILES | IC50 (CK2a2) [nM] | IC50 (PIK4CB) [nM] | IC50 (CFPAC-1 (Pancreatic)) [µM] | IC50 (c-Kit(D820Y)) [nM] | IC50 (FMS/CSF1R) [nM] | IC50 (BIKE) [nM] | IC50 (EFGR(L858R, T7790M)) [nM] | IC50 (KIT) [nM] | IC50 (DYRK1B) [nM] | IC50 (c-Kit(Y823D)) [nM] | IC50 (Aurora A) [nM] | IC50 (PASK) [nM] |
| --- | --- | --- | --- | --- | --- | --- | --- | --- | --- | --- | --- | --- |
| COc1cc(-c2cc(=O)c3c(O)c(C/C=C(\C)CCC=C(C)C)c(O)cc3o2)ccc1O [FBL-03A] | 350 | 670 | 12 | > 20000 | 1500 | > 20000 | > 20000 | 350 | > 20000 | > 20000 | 730 | > 20000 |
| COc1cc(-c2cc(=O)c3c(O)cc(O)c(CC=C(C)C)c3o2)ccc1O [FBL-03G] | 9.7 | > 20000 | 14.3 | 113 | 4 | > 20000 | > 1000 | < 1000 | 22.8 | 84 | 1090 | 116 |
| COc1ccc(-c2cc(=O)c3c(O)c(C/C=C(\C)CCC=C(C)C)c(O)cc3o2)cc1OC [FBL-03D] | > 30000 | > 30000 |  | > 30000 | > 30000 | > 30000 | > 30000 | > 30000 | > 30000 | > 30000 | > 30000 | > 30000 |
| COc1cc(-c2cc(=O)c3c(O)c(CC=C(C)C)c(O)cc3o2)ccc1O [FBL-03B] | 477 |  | 17 | 1280 | 199 | > 20000 | > 1000 | < 1000 | 1670 | 244 | 12 | 2060 |
| COc1cc(-c2cc(=O)c3c(O)cc(O)c(C/C=C(\C)CCC=C(C)C)c3o2)ccc1O [FBL-03C] | 19 | > 1000 | 12 | > 20000 | 1200 | 21 | 680 | > 1000 | 6400 | > 20000 |  | > 20000 |
